The text below walks through data of ChEMBL document CHEMBL1145065, “Thalidomide metabolites and analogues. 3. Synthesis and antiangiogenic activity of the teratogenic and TNFalpha-modulatory thalidomide analogue 2-(2,6-dioxopiperidine-3-yl)phthalimidine” (2003).

The species entered for test [1] is Rattus norvegicus. Briefly: Inhibition of angiogenesis (new microvessel growth) in rat aortic ring model at 100 uM in Endothelial basal medium (EBM) and Dimethylsulfoxide (DMSO). To be noted: Aorta. Type of test: functional.
Test [2] is filed under the species Rattus norvegicus. Briefly: Inhibition of angiogenesis (new microvessel growth) in rat aortic ring model at 200 uM in Endothelial basal medium (EBM) and Dimethylsulfoxide (DMSO). Type of test: functional. To be noted: Aorta.

SMILES strings stand for the structures.

On to `O=C1CCC(N2Cc3ccccc3C2=O)C(=O)N1` (configuration not stated), for which the inhibition (in general, how much of the control response was suppressed) at 100 µM in the test listed under Rattus norvegicus [1] is 30%. The same compound displayed an inhibition at 200 µM in the test listed under Rattus norvegicus [2] of 30%.
